Where a name gives a salt, the structure may show the parent alone.
These compounds were tested against T1, Adrenergic β2 (Homo sapiens, UniProt P07550) (assay: Adrenergic β2 mediated cAMP production in H292 cells (AlphaScreen cAMP detection)). Details: Intrinsic Activity as a fraction relative to the maximum activity determined for formoterol.
T1 construct: Adherent H292 cells were removed from tissue culture flasks; endogenous in cells; host or cells: H292 cells
Format: cell-based
Set-up: key to β2 Int Act: fraction of formoterol maximum activity (formoterol = 1)
Description: Adrenergic β2 Mediated cAMP Production
H292 cells were grown in 225 cm2 flasks incubator at 37° C., 5% CO2 in RPMI medium containing, 10% (v/v) FBS (foetal bovine serum) and 2 mM L-glutamine.
Adherent H292 cells were removed from tissue culture flasks by treatment with Accutase™ cell detachment solution for 15 minutes. Flasks were incubated for 15 minutes in a humidified incubator at 37° C., 5% CO2. Detached cells were re-suspended in RPMI media (containing 10% (v/v) FBS and 2 mM L-glutamine) at 1×10^6 cells per mL. 10000 cells in 100 μL were added to each well of a tissue-culture-treated 96-well plate and the cells incubated overnight in a humidified incubator at 37° C., 5% CO2. The culture media was removed and cells were washed twice with 100 μL assay buffer and replaced with 50 μL assay buffer (HBSS solution containing 10 mM HEPES pH7.4 and 5 mM glucose). Cells were rested at room temperature for 20 minutes after which time 25 μL of rolipram (1.2 mM made up in assay buffer containing 2.4% (v/v) dimethylsulphoxide) was added. Cells were incubated with rolipram for 10 minutes after which time test compounds were added and the cells were incubated for 60 minutes at room temperature. The final rolipram concentration in the assay was 300 μM and final vehicle concentration was 1.6% (v/v) dimethylsulphoxide. The reaction was stopped by removing supernatants, washing once with 100 μL assay buffer and replacing with 50 μL lysis buffer. The cell monolayer was frozen at −80° C. for 30 minutes (or overnight).
AlphaScreen™ cAMP Detection
The concentration of cAMP (cyclic adenosine monophosphate) in the cell lysate was determined using AlphaScreen™ methodology. The frozen cell plate was thawed for 20 minutes on a plate shaker then 10 μL of the cell lysate was transferred to a 96-well white plate. 40 μL of mixed AlphaScreen™ detection beads pre-incubated with biotinylated cAMP, was added to each well and the plate incubated at room temperature for 10 hours in the dark. The AlphaScreen™ signal was measured using an EnVision spectrophotometer (Perkin-Elmer Inc.) with the recommended manufacturer's settings. cAMP concentrations were determined by reference to a calibration curve determined in the same experiment using standard cAMP concentrations. Concentration response curves for agonists were constructed and data was fitted to a four parameter logistic equation to determine both the pEC50 and Intrinsic Activity. Intrinsic Activity was expressed as a fraction relative to the maximum activity determined for formoterol in each experiment.

T1 sequence (P07550 whole entry): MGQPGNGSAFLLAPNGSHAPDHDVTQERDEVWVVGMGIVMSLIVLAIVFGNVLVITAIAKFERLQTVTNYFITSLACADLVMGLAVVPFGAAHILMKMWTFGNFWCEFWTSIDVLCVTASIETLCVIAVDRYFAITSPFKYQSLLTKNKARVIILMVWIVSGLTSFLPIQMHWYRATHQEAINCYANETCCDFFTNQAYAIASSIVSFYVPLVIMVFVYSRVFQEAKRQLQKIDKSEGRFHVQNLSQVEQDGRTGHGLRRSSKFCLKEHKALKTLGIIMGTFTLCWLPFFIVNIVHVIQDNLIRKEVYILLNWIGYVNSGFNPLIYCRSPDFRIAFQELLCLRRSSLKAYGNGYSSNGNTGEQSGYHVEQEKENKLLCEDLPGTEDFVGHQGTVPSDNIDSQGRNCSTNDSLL

In order of falling “β2 Int Act” value:
1. CCCC[C@@H](C)N(CCNCCc1ccc(O)c2c1OCC(=O)N2)C(=O)CCNCCc1cccc(F)c1F [Example 53, (R)-3-(2,3-Difluorophenethylamino)-N-(hexan-2-yl)-N-(2-(2-(5-hydroxy-3-oxo-3,4-dihydro-2H-benzo[b][1,4]oxazin-8-yl)ethylamino)ethyl)propanamide bis(trifluoroacetate)]  0.99
2. O=C1COc2c(CCNCCN(C(=O)CCNCCc3cc(F)cc(Cl)c3)C3CCCCCC3)ccc(O)c2N1 [Example 66, 3-(3-Chloro-5-fluorophenethylamino)-N-cycloheptyl-N-(2-(2-(5-hydroxy-3-oxo-3,4-dihydro-2H-benzo[b][1,4]oxazin-8-yl)ethylamino)ethyl)propanamide bis(trifluoroacetate)]  0.99
3. CCCC[C@@H](C)N(CCNCCc1ccc(O)c2c1OCC(=O)N2)C(=O)CCNCCc1cc(F)ccc1F [Example 54, (R)-3-(2,5-Difluorophenethylamino)-N-(hexan-2-yl)-N-(2-(2-(5-hydroxy-3-oxo-3,4-dihydro-2H-benzo[b][1,4]oxazin-8-yl)ethylamino)ethyl)propanamide bis(trifluoroacetate)]  0.96
4. CCCC[C@@H](C)N(CCNCCc1ccc(O)c2c1OCC(=O)N2)C(=O)CCNCCc1ccc(F)c(F)c1 [Example 52, (R)-3-(3,4-Difluorophenethylamino)-N-(hexan-2-yl)-N-(2-(2-(5-hydroxy-3-oxo-3,4-dihydro-2H-benzo[b][1,4]oxazin-8-yl)ethylamino)ethyl)propanamide bis(trifluoroacetate)]  0.95
5. CCCC[C@@H](C)N(CCNCCc1ccc(O)c2c1OCC(=O)N2)C(=O)CCNCCc1cc(F)cc(F)c1 [Example 51, (R)-3-(3,5-Difluorophenethylamino)-N-(hexan-2-yl)-N-(2-(2-(5-hydroxy-3-oxo-3,4-dihydro-2H-benzo[b][1,4]oxazin-8-yl)ethylamino)ethyl)propanamide bis(trifluoroacetate)]  0.94
6. O=C1COc2c(CCNCCN(C(=O)CCNCCc3cc(F)cc(F)c3)C3CCCCCC3)ccc(O)c2N1 [Example 65, N-Cycloheptyl-3-(3,5-difluorophenethylamino)-N-(2-(2-(5-hydroxy-3-oxo-3,4-dihydro-2H-benzo[b][1,4]oxazin-8-yl)ethylamino)ethyl)propanamide bis(trifluoroacetate)]  0.93
7. O=C1COc2c(CCNCCN(C(=O)CCNCCc3cccc(Cl)c3)C3CCCCCC3)ccc(O)c2N1 [Example 68, 3-(3-Chlorophenethylamino)-N-cycloheptyl-N-(2-(2-(5-hydroxy-3-oxo-3,4-dihydro-2H-benzo[b][1,4]oxazin-8-yl)ethylamino)ethyl)propanamide bis(trifluoroacetate)]  0.93
8. CCCC[C@@H](C)N(CCNCCc1ccc(O)c2c1OCC(=O)N2)C(=O)CCNCCc1ccc(Cl)c(Cl)c1 [Example 55, (R)-3-(3,4-Dichlorophenethylamino)-N-(hexan-2-yl)-N-(2-(2-(5-hydroxy-3-oxo-3,4-dihydro-2H-benzo[b][1,4]oxazin-8-yl)ethylamino)ethyl)propanamide bis(trifluoroacetate)]  0.92
9. CCCC[C@@H](C)N(CCNCCc1ccc(O)c2c1OCC(=O)N2)C(=O)CCNCCc1ccc(F)c(Cl)c1 [Example 48, (R)-3-(3-Chloro-4-fluorophenethylamino)-N-(hexan-2-yl)-N-(2-(2-(5-hydroxy-3-oxo-3,4-dihydro-2H-benzo[b][1,4]oxazin-8-yl)ethylamino)ethyl)propanamide bis(trifluoroacetate)]  0.91
10. CCCC[C@@H](C)N(CCNCCc1ccc(O)c2c1OCC(=O)N2)C(=O)CCNCCc1cc(C)ccc1F [Example 56, (R)-3-(2-Fluoro-5-methylphenethylamino)-N-(hexan-2-yl)-N-(2-(2-(5-hydroxy-3-oxo-3,4-dihydro-2H-benzo[b][1,4]oxazin-8-yl)ethylamino)ethyl)propanamide bis(trifluoroacetate)]  0.91
11. CCCC[C@@H](C)N(CCNCCc1ccc(O)c2c1OCC(=O)N2)C(=O)CCNCCc1cc(F)ccc1C [Example 57, (R)-3-(5-Fluoro-2-methylphenethylamino)-N-(hexan-2-yl)-N-(2-(2-(5-hydroxy-3-oxo-3,4-dihydro-2H-benzo[b][1,4]oxazin-8-yl)ethylamino)ethyl)propanamide bis(trifluoroacetate)]  0.91
12. CC[C@@H](C)N(CCNCCc1ccc(O)c2c1OCC(=O)N2)C(=O)CCNCCc1ccc(Cl)c(Cl)c1 [Example 58, (R)—N-sec-Butyl-3-(3,4-dichlorophenethylamino)-N-(2-(2-(5-hydroxy-3-oxo-3,4-dihydro-2H-benzo[b][1,4]oxazin-8-yl)ethylamino)ethyl)propanamide dihydrochloride]  0.91
13. CCCC[C@@H](C)N(CCNCCc1ccc(O)c2c1OCC(=O)N2)C(=O)CCNCCc1ccccc1Cl [Example 46, (R)-3-(2-Chlorophenethylamino)-N-(hexan-2-yl)-N-(2-(2-(5-hydroxy-3-oxo-3,4-dihydro-2H-benzo[b][1,4]oxazin-8-yl)ethylamino)ethyl)propanamide bis(trifluoroacetate)]  0.89
14. CCCC[C@@H](C)N(CCNCCc1ccc(O)c2c1OCC(=O)N2)C(=O)CCNCCc1ccc(F)c(C)c1 [Example 47, (R)-3-(4-Fluoro-3-methylphenethylamino)-N-(hexan-2-yl)-N-(2-(2-(5-hydroxy-3-oxo-3,4-dihydro-2H-benzo[b][1,4]oxazin-8-yl)ethylamino)ethyl)propanamide bis(trifluoroacetate)]  0.89
15. CCCC[C@@H](C)N(CCNCCc1ccc(O)c2c1OCC(=O)N2)C(=O)CCNCCc1cc(F)cc(Cl)c1 [Example 50, (R)-3-(3-Chloro-5-fluorophenethylamino)-N-(hexan-2-yl)-N-(2-(2-(5-hydroxy-3-oxo-3,4-dihydro-2H-benzo[b][1,4]oxazin-8-yl)ethylamino)ethyl)propanamide bis(trifluoroacetate)]  0.89
16. O=C1COc2c(CCNCCN(C(=O)CCNCCc3cc(F)ccc3F)C3CCCCCC3)ccc(O)c2N1 [Example 64, N-Cycloheptyl-3-(2,5-difluorophenethylamino)-N-(2-(2-(5-hydroxy-3-oxo-3,4-dihydro-2H-benzo[b][1,4]oxazin-8-yl)ethylamino)ethyl)propanamide bis(trifluoroacetate)]  0.88
17. CC(C)[C@@H](C)N(CCNCCc1ccc(O)c2c1OCC(=O)N2)C(=O)CCNCCc1ccc(Cl)c(Cl)c1 [Example 59, (R)-3-(3,4-Dichlorophenethylamino)-N-(2-(2-(5-hydroxy-3-oxo-3,4-dihydro-2H-benzo[b][1,4]oxazin-8-yl)ethylamino)ethyl)-N-(3-methylbutan-2-yl)propanamide dihydrochloride]  0.87
18. O=C1COc2c(CCNCCN(C(=O)CCNCCc3ccc(F)c(F)c3)C3CCCCCC3)ccc(O)c2N1 [Example 67, N-Cycloheptyl-3-(3,4-difluorophenethylamino)-N-(2-(2-(5-hydroxy-3-oxo-3,4-dihydro-2H-benzo[b][1,4]oxazin-8-yl)ethylamino)ethyl)propanamide bis(trifluoroacetate)]  0.87
19. Cc1cc(CCNCCC(=O)N(CCNCCc2ccc(O)c3c2OCC(=O)N3)C2CCCCCC2)ccc1F [Example 62, N-Cycloheptyl-3-(4-fluoro-3-methylphenethylamino)-N-(2-(2-(5-hydroxy-3-oxo-3,4-dihydro-2H-benzo[b][1,4]oxazin-8-yl)ethylamino)ethyl)propanamide bis(trifluoroacetate)]  0.86
20. C[C@H](C1CCCCC1)N(CCNCCc1ccc(O)c2c1OCC(=O)N2)C(=O)CCNCCc1ccccc1 [Example 61, (R)—N-(1-Cyclohexylethyl)-N-(2-(2-(5-hydroxy-3-oxo-3,4-dihydro-2H-benzo[b][1,4]oxazin-8-yl)ethylamino)ethyl)-3-(phenethylamino)propanamide bis(trifluoroacetate)]  0.84
21. O=C1COc2c(CCNCCN(C(=O)CCNCCc3ccc(Cl)cc3)C3CCCCCC3)ccc(O)c2N1 [Example 63, 3-(4-Chlorophenethylamino)-N-cycloheptyl-N-(2-(2-(5-hydroxy-3-oxo-3,4-dihydro-2H-benzo[b][1,4]oxazin-8-yl)ethylamino)ethyl)propanamide bis(trifluoroacetate)]  0.79

— patent publication US20120142646A1, “Novel Compounds 621” (priority 2006, published 2012)
